Laboratory results: patent publication US10919785B2, “Hydraulic conveyor of floating objects provided with a device for sanitising conveying composition, plant provided with such a conveyor and sanitising method” (MAF AGROBOTIC, priority 2016, dated 2021)

How the values were obtained:
[1] = Example 3: UV/hydrogen peroxide sanitising of 90 m^3 apple conveying water, six photolysis chambers in series; assay type: physicochemical
Source text: A hydraulic conveyor of a plant for sorting and packaging apples is selected containing a volume of 90 m^3 of water as composition for conveying Ariane, Rosy Glow and Pink Lady apples. A flow rate of conveying composition of 36 m^3/h is established in the external circuit and a flow rate of photoreactive composition of […] is established, the photoreactive composition being an aqueous solution of hydrogen peroxide at an initial concentration of 400 g/l. Under these flow conditions, all of the volume of the conveying composition of the hydraulic conveyor is theoretically treated within 2.5 hours. The composition at the inlet of the sanitising device has an initial hydrogen peroxide proportion in the order of 3 ppm sufficient to allow the decontamination of the composition at the outlet of the sanitising device formed of six photolysis chambers mounted in series, each chamber comprising five fluorescent tubes with an individual power of 200 W.
The results obtained are shown in Table 2 hereinafter in which the concentration values of boscalid from the apples conveyed with the composition to be sanitised at the inlet of the sanitising device (EC) and at the outlet of sanitising device (SC) are given in μg/l. The column SE/EC represents the ratio multiplied by 100 of the boscalid concentration at the outlet of the sixth chamber of the photolysis tank to the boscalid concentration at the inlet of the photolysis tank (EC). The column C/C0 represents the ratio of the boscalid concentration measured at the inlet of the sanitising device over time to the initial boscalid concentration (t=0).

[2] = Example 6: pilot device, degradation of different amounts of boscalid (FIG. 7); assay type: physicochemical; settings: boscalid 25, 80 and 200 μg/l; hydrogen peroxide 2 mg/l continuously added; 6 m^3/h
Source text: A semi-industrial pilot device in accordance with one aspect of the invention comprises a tank for recirculating water to be treated of a volume of 1000 l, a circulation pump ensuring a circulation flow of the water to be treated in a sanitising device with a flow rate between 4 m^3 to 8 m^3/h. The sanitising device comprises a photolysis chamber comprising an inlet for water from the recirculation tank and an outlet for sanitised water directed to the recirculation tank. The photolysis chamber is formed of a rigid tubular envelope, of which the external wall is opaque to light and forming an inner space suitable for receiving five fluorescent tubes with a longitudinal axis extending in parallel with the longitudinal axis of the rigid tubular envelope. The inner volume of the decontamination reactor is in the order of […].
The five fluorescent tubes are tubes of 200 W emitting light at a wavelength of 254 nm and arranged longitudinally in the tubular envelope at the five points of a regular pentagon and in contact with the water to be treated flowing in the photolysis chamber. In this configuration of the sanitising device, the water to be sanitised flowing in contact with the five fluorescent tubes is subjected to substantially homogeneous illumination in the order of 500 mJ/cm^2 for a circulation flow rate of water to be sanitised in the order of 6 m^3/h. […]

[3] = assay type: physicochemical; settings: 19 seconds
Source text: A hydraulic conveyor of a plant for sorting and packaging apples containing a volume of 90 m^3 of water as composition for conveying Ariane, Rosy Glow and Pink Lady apples comprises a sanitising device in accordance with the invention formed of six photolysis chambers mounted in series, each chamber comprising five fluorescent tubes having an individual power of 200 W. The flow rate of the composition for conveying apples in the sanitising device is 36 m^3/h. It has been observed that the plurality of photolysis chambers mounted in series allows a rate of degradation of 96% of the initial boscalid to be achieved with a flow rate of the composition to be treated of 36 m^3/h and for an average residence time of the conveying composition in the sanitising device in the order of 19 seconds.

O=C(Nc1ccccc1-c1ccc(Cl)cc1)c1cccnc1Cl [boscalid]
boscalid concentration at the inlet of the sanitising device (EC) ([1]; time 0 hours): 2.83 µg/L | percent boscalid removed between inlet and outlet of the sanitising device (100 x (1 - SC/EC)) ([1]; time 0 hours): 100% | boscalid concentration at the inlet of the sanitising device (EC) ([1]; time 4 hours): 4.76 µg/L | boscalid concentration at the outlet of the sanitising device (SC) ([1]; time 4 hours): 0.065 µg/L | percent boscalid removed between inlet and outlet of the sanitising device (100 x (1 - SC/EC)) ([1]; time 4 hours): 98.6% | boscalid concentration at the inlet of the sanitising device (EC) ([1]; time 7 hours): 2.84 µg/L | boscalid concentration at the outlet of the sanitising device (SC) ([1]; time 7 hours): 0.206 µg/L | percent boscalid removed between inlet and outlet of the sanitising device (100 x (1 - SC/EC)) ([1]; time 7 hours): 92.8% | C/C0 (inlet boscalid concentration over initial concentration) ([1]; time 7.1 hours): 1 | boscalid concentration at the inlet of the sanitising device (EC) ([1]; time 7.1 hours): 4.19 µg/L | percent boscalid removed between inlet and outlet of the sanitising device (100 x (1 - SC/EC)) ([1]; time 7.1 hours): 100% | C/C0 (inlet boscalid concentration over initial concentration) ([1]; time 10.5 hours): 0.41 | boscalid concentration at the inlet of the sanitising device (EC) ([1]; time 10.5 hours): 1.73 µg/L | boscalid concentration at the outlet of the sanitising device (SC) ([1]; time 10.5 hours): 0.062 µg/L | percent boscalid removed between inlet and outlet of the sanitising device (100 x (1 - SC/EC)) ([1]; time 10.5 hours): 96.4% | C/C0 (inlet boscalid concentration over initial concentration) ([1]; time 12.5 hours): 0.32 | boscalid concentration at the inlet of the sanitising device (EC) ([1]; time 12.5 hours): 1.35 µg/L | percent boscalid removed between inlet and outlet of the sanitising device (100 x (1 - SC/EC)) ([1]; time 12.5 hours): 100% | C/C0 (inlet boscalid concentration over initial concentration) ([1]; time 14.75 hours): 0.41 | boscalid concentration at the inlet of the sanitising device (EC) ([1]; time 14.75 hours): 1.71 µg/L | boscalid concentration at the outlet of the sanitising device (SC) ([1]; time 14.75 hours): 0.058 µg/L | percent boscalid removed between inlet and outlet of the sanitising device (100 x (1 - SC/EC)) ([1]; time 14.75 hours): 96.6% | C/C0 (inlet boscalid concentration over initial concentration) ([1]; time 17.25 hours): 0.28 | boscalid concentration at the inlet of the sanitising device (EC) ([1]; time 17.25 hours): 1.18 µg/L | boscalid concentration at the outlet of the sanitising device (SC) ([1]; time 17.25 hours): 0.040 µg/L | percent boscalid removed between inlet and outlet of the sanitising device (100 x (1 - SC/EC)) ([1]; time 17.25 hours): 96.6% | C/C0 (inlet boscalid concentration over initial concentration) ([1]; time 19.25 hours): 0.45 | boscalid concentration at the inlet of the sanitising device (EC) ([1]; time 19.25 hours): 1.88 µg/L | percent boscalid removed between inlet and outlet of the sanitising device (100 x (1 - SC/EC)) ([1]; time 19.25 hours): 100% | C/C0 (inlet boscalid concentration over initial concentration) ([1]; time 22.75 hours): 0.25 | boscalid concentration at the inlet of the sanitising device (EC) ([1]; time 22.75 hours): 1.07 µg/L | boscalid concentration at the outlet of the sanitising device (SC) ([1]; time 22.75 hours): 0.064 µg/L | percent boscalid removed between inlet and outlet of the sanitising device (100 x (1 - SC/EC)) ([1]; time 22.75 hours): 94% | C/C0 (inlet boscalid concentration over initial concentration) ([1]; time 24.75 hours): 0.15 | boscalid concentration at the inlet of the sanitising device (EC) ([1]; time 24.75 hours): 0.64 µg/L | boscalid concentration at the outlet of the sanitising device (SC) ([1]; time 24.75 hours): 0.057 µg/L | percent boscalid removed between inlet and outlet of the sanitising device (100 x (1 - SC/EC)) ([1]; time 24.75 hours): 91.2% | C/C0 (inlet boscalid concentration over initial concentration) ([1]; time 28.75 hours): 0.16 | boscalid concentration at the inlet of the sanitising device (EC) ([1]; time 28.75 hours): 0.66 µg/L | boscalid concentration at the outlet of the sanitising device (SC) ([1]; time 28.75 hours): 0.039 µg/L | percent boscalid removed between inlet and outlet of the sanitising device (100 x (1 - SC/EC)) ([1]; time 28.75 hours): 94% | C/C0 (inlet boscalid concentration over initial concentration) ([1]; time 29.75 hours): 0.22 | boscalid concentration at the inlet of the sanitising device (EC) ([1]; time 29.75 hours): 0.93 µg/L | percent boscalid removed between inlet and outlet of the sanitising device (100 x (1 - SC/EC)) ([1]; time 29.75 hours): 100% | C/C0 (inlet boscalid concentration over initial concentration) ([1]; time 32.25 hours): 0.19 | boscalid concentration at the inlet of the sanitising device (EC) ([1]; time 32.25 hours): 0.79 µg/L | boscalid concentration at the outlet of the sanitising device (SC) ([1]; time 32.25 hours): 0.040 µg/L | percent boscalid removed between inlet and outlet of the sanitising device (100 x (1 - SC/EC)) ([1]; time 32.25 hours): 95% | C/C0 (inlet boscalid concentration over initial concentration) ([1]; time 34.75 hours): 0.17 | boscalid concentration at the inlet of the sanitising device (EC) ([1]; time 34.75 hours): 0.73 µg/L | boscalid concentration at the outlet of the sanitising device (SC) ([1]; time 34.75 hours): 0.043 µg/L | percent boscalid removed between inlet and outlet of the sanitising device (100 x (1 - SC/EC)) ([1]; time 34.75 hours): 94.1% | residual amount of boscalid [2]: less than 80% | rate of degradation of the initial boscalid [3]: 96%
